Data as given in US5719153A, “5H,8H-2-oxa-1,3,5,8-tetraaza-cyclopenta[b]-naphthalene-6,7-diones” (American Home Products Corporation, priority 1996, dated 1998).

Molecular target: AMPA receptor
Experiment: displacement of [^3 H]-AMPA from its binding site on rat forebrain membranes
Settings: 5 nmolar [^3 H]AMPA, 100 mmolar KSCN, 4° C., 1 hr
Description: A representative compound of this invention was evaluated in a standard pharmacological test procedure to determine its ability to displace [^3 H]-α-amino-3-hydroxy-5-methylisoxazole-4-propionic acid (AMPA) from its binding site on rat forebrain membranes as described in a modified assay by D. E. Murphy, E. W. Snowhill and M. Williams (Characterization of quisqualate recognition sites in rat brain tissue using DL-[^3 H]α-amino-3-hydroxy-5-methylisoxazole-4-propionic acid (AMPA) and a filtration assay, Neurochemical Research, Vol. 12, No.9, 1987, pp. 775-782). Briefly, rats were decapitated and their forebrains (whole brain minus brain stem and cerebella) were homogenized in a volume (ml) of ice cold 0.32M sucrose equivalent to 15 times the forebrain weight (gram). The homogenate was centrifuged at 1,000 g for 10 minutes and the supernatant was recentrifuged at 20,000 g for 20 min. The pellet was resuspended in ice-cold distilled water and centrifuged at 8,000 g for 20 min. The supernatant and buffy coat were centrifuged at 48,000 g for 10 min. The pellet was then resuspended in the original volume of ice-cold 50 mmolar TRIS HCl (pH 7.4) and centrifuged at 48,000 g for 10 min. The pellet was resuspended in 50 mmolar TRIS HCl containing 0.04% Triton X-100 and the homogenate was incubated at 37° C. for 30 min. The homogenate was then centrifuged at 48,000 g for 10 min. […]

O=c1[nH]c2cc3no[n+]([O-])c3cc2[nH]c1=O [Example 1, 1-Oxy-5H,8H-2-oxa-1,3,5,8-tetraaza-cyclopenta[b]naphthalene-6,7-dione]
IC50: 7.6 µM
